In general, IC50 refers to the midpoint of a concentration-inhibition curve. One may read the viability as a per cent measure of how many cells are alive, often set against a control.

Structures are written as SMILES.

The values below come from PMC8619920, “New Polyesterified Ursane Derivatives from Leaves of Maesa membranacea and Their Cytotoxic Activity” (Molecules, 2021).

For data set [1], the system named is HTB140 human melanoma cells. Put plainly: Cytotoxicity, LDH assay, HTB140 cells. The conditions noted are these: Homo sapiens; 24 h treatment, 5–100 μg/mL. The format is cell-based. The method, then: (§1) Cytotoxic activity was tested on human cancer and normal cells, grouped in three panels, namely: prostate, skin and gastrointestinal. The prostate panel consisted of prostate cancer cell lines Du145 (ATCC HTB-81) and PC3 (ATCC CRL-1435), and prostate epithelial cells PNT-2 (ECACC 95012613). Melanoma cell lines A375 (ATCC CRL-1619) and HTB140 (ATCC Hs 294T) together with skin keratinocytes HaCaT (obtained as a kind gift of prof. Marta Michalik, Department of Cell Biology, Jagiellonian University, Kraków, Poland) were included into the skin panel. The gastrointestinal panel of cells comprised colon cancer cell lines Caco-2 (ATCC HTB-37) and HT29 (ATCC HTB-38). Du145 cells were grown in Modified Eagle’s Medium with low (1.0 g/L) glucose concentration, HT29, PC3 and PNT-2 cells in Dulbecco’s Modified Eagle’s Media: F12 HAM Nutrient Mixture, Caco-2 in Modified Eagle’s Medium with NEAA (no-essential amino acids) while melanoma cells and keratinocytes were maintained in Modified Eagle’s Medium with high (4.5 g/L) glucose concentration. The culture media (all supplied by Sigma-Aldrich Co.; St. Louis, MO, USA) contained antibiotics and 10% fetal bovine serum (FBS). All cultures were maintained at 37 °C, in a humidified, 5% CO2 containing, atmosphere.
(§2) The examined triterpenes were diluted in the culture media from freshly made stock solutions in MeOH (10 mg/mL) to the working concentrations (from 0 to 100 μg/mL).
(§3) Cell viability was determined as it was described previously. Cells suspended in the nutrient medium were transferred into 96-well microtiter plates (density 1.5 × 10^4 per well), and preincubated for 24 h (37 °C, 5% CO2). Then, the culture medium was replaced with the medium containing different concentrations of 1 or 2 (1–100 μg/mL). After 24 h of incubation, viability of the cells was determined using colorimetric lactate dehydrogenase (LDH) assay, in comparison to the controls to which corresponding aliquots of MeOH diluted with culture media were added. Cells grown in the medium without the tested compounds were used as control I (negative) and the positive control (control II) was obtained by incubation of the cells in the medium containing 1% Triton X-100. LDH released from the damaged cells into the cell culture medium was quantified by measuring the absorbance at 490 nm using Synergy II Biotek (BioTek Instruments, Winooski, VT, USA) microplate reader. Cytotoxicities of the examined compounds were calculated as follows: [(absorbance of the tested sample − absorbance of control I)/(absorbance of control II − absorbance of control I)] × 100. Results were means of three independent measurements (± SD). Doxorubicin (Ebewe Pharma GmbH., Unterach, Austria) was used as a reference cytostatic drug. The IC50 values were determined by plotting the percentage viability of the cells versus concentration and the adequate calculations made using AAT Bioquest website program (https://www.aatbio.com/tools/ic50-calculator, accessed on 29 October 2021).

Data set [2] relates to HaCaT human immortalized keratinocytes. In words: Cytotoxicity, LDH assay, HaCaT cells. The data set is classed as cell-based. The conditions noted are these: Homo sapiens, HaCaT; 24 h treatment, 5–100 μg/mL. The method, then:
as §1, §2, §3

Data set [3] is described as follows: Cytotoxicity, LDH assay, HaCaT cells. The following applies: human, 24 h, mean ± SD of three, read-out: Cell viability HaCaT; for viability at 24 h, 100 μg/mL: HaCaT immortalized keratinocytes; for viability at 24 h, 5 μg/mL / viability at 24 h, 10 μg/mL / viability at 24 h, 20 μg/mL / viability at 24 h, 30 μg/mL / viability at 24 h, 40 μg/mL / viability at 24 h, 50 μg/mL: HaCaT keratinocytes. The format is cell-based, human. Here is the method:
as §1, §2, §3

With `CCC(C)C(=O)OC1C=C2C3C(C)C(C)(O)CC(OC(C)=O)C3(C)CCC2(C)C2(C)CC(OC(C)=O)C3C(C)(C)C(O)C(OC(C)=O)CC3(C)C12` (stereo not drawn) [Compound 1, 2α,6β,22α-triacetoxy-11α-(2-methylbutyryloxy)-urs-12-ene-3α,20β-diol], in data set [1], the IC50 was above 50 µg/mL. In addition, the IC50 in data set [2] is above 100 µg/mL. In data set [3], the viability at 24 h, 100 μg/mL was 56.8 ± 2.2%; the viability at 24 h, 5 μg/mL was found to be 96.52 ± 0.8%; the viability at 24 h, 10 μg/mL turned out to be 94.9 ± 1%; the viability at 24 h, 20 μg/mL was found to be 88.37 ± 0.47%. Moreover, in data set [3], the viability at 24 h, 30 μg/mL was 81.2 ± 1.77%; the viability at 24 h, 40 μg/mL was 74 ± 1.72%; the viability at 24 h, 50 μg/mL worked out at 65.7 ± 1.22%.

Turning to `CC(=O)OC1CC2(C)C(C(OC(C)=O)CC3(C)C2C(O)C=C2C4C(C)C(C)(O)CC(OC(C)=O)C4(C)CCC23C)C(C)(C)C1O` (stereo not drawn) [Compound 2, 2α,6β,22α-triacetoxy-urs-12-ene-3α,11α,20β-triol], the IC50 in data set [1] was above 100 µg/mL. Further, the IC50 in data set [2] was above 100 µg/mL. Moreover, in data set [3], the viability at 24 h, 100 μg/mL was 54.3 ± 1.78%; the viability at 24 h, 5 μg/mL worked out at 96.84 ± 0.6%; the viability at 24 h, 10 μg/mL worked out at 94.5 ± 1.55%; the viability at 24 h, 20 μg/mL came to 90.6 ± 0.66%. In data set [3], the viability at 24 h, 30 μg/mL worked out at 82.8 ± 1.23%; the viability at 24 h, 40 μg/mL was 75.7 ± 1.76%; the viability at 24 h, 50 μg/mL amounted to 61.8 ± 1.55%.
